Laboratory results reported in patent publication US10632113B2, “Abuse-resistant drug formulations with built-in overdose protection” (KASHIV BIOSCIENCES, LLC, priority 2014, dated 2020).
Where a name gives a salt, the structure may show the parent alone.

Columns and labels:
[1] = Binding studies using USP Apparatus I (naloxone to ion exchange polymer); type: physicochemical; settings: 1:1 molar naloxone:Amberlite IRP64, 500 mL 0.1 N HCl / 5 mM phosphate buffer pH 6.8
Method: The following experiment was done. • 1. Based on the 1:1 molar ratio of naloxone:Amberlite™ IRP64, take the required quantity of naloxone and Amberlite™ IRP64 blend in a capsule and add it to 500 mL of the medium (0.1 N HCl/5 mM Phosphate buffer, pH 6.8). • 2. Withdraw dissolution samples at 10, 30 and 60 mins. • 3. Centrifuge the samples at 3000 rpm for 10 mins and filter through fritted filter ([…]) to get the supernatant for analysis. The results are illustrated in FIG. 9.

[2] = Dissolution studies using USP Apparatus II, single vs multiple doses; type: physicochemical; settings: Type A + Type C granules in capsule, 250 ml medium pH 1.6, 10, 30, 60, 120 minutes

Row | Structure (SMILES) | percentage of naloxone hydrochloride bonded to ion exchange polymer, multiple doses versus single dose [1] | percentage of drug released, multiple doses versus single dose [2]
1 | C=CCN1CC[C@]23c4c5ccc(O)c4O[C@H]2C(=O)CC[C@@]3(O)[C@H]1C5 [naloxone hydrochloride] | drastically increases | 
2 | COc1ccc2c3c1O[C@H]1C(=O)CC[C@@]4(O)[C@@H](C2)N(C)CC[C@]314.Cl [oxycodone hydrochloride] |  | drastically reduced
